# According to patent US8163768B2, “1,4-dihydropyridine-fused heterocycles, process for preparing the same, use and compositions containing them” (Aventis Pharma S.A.., priority 2005, dated 2012):
# Target: T1, Aurora2 (Aurora-A) (Homo sapiens, UniProt O14965)
# T1 construct: Aurora-A: the full length recombinant protein including an N-terminal poly-histidine tail has been expressed in E. coli; poly-histidine (N); made in house; host or cells: E. coli
# T1 sequence (O14965 1-403): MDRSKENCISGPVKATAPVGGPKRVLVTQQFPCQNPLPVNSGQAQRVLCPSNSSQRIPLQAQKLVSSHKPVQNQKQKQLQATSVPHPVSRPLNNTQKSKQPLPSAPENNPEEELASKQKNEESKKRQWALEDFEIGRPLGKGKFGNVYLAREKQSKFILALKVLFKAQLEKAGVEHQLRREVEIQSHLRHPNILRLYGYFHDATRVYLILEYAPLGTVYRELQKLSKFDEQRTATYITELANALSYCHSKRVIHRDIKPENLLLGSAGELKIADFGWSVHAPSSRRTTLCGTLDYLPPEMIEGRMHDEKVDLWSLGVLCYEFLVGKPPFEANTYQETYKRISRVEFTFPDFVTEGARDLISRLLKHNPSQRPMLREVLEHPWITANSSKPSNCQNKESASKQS
# Test: Aurora 2 (Aurora A) kinase radioactivity scintillation assay using nickel chelate Flash plates
# Format: biochemical
# Conditions: 10 nM Aurora-A, 500 nM NuMA substrate, 1 μM ATP with [33P] ATP, 10 mM MgCl2, 30 minutes, 37° C.
# Description: Aurora 1 and 2 (Respectively. Aurora B and A)
# The inhibitory effect of compounds with respect to the Aurora 1 and 2 kinases is determined with a radioactivity scintillation assay using nickel chelate.
# The kinase activity of Aurora is measured by the phosphorylation of NuMA-histidine substrate in the presence of radiolabelled ATP ([^33P] ATP) using 96 well Flash plates where the nickel-chelate is linked to the surface of the microplate. The amount of ^33P incorporated to the substrate NuMA is proportional to the aurora activity.
# The Flash plates used are nickel-chelate 96 well plates (Perkin Elmer, model SMP107).
# The products to be evaluated are incubated in a 100 μl reaction volume per well in the presence of 10 nM of Aurora-B or Aurora-A, 500 nM of NuMA substrate in the following buffer: 50 mM of NaCl, 5 mM MgCl2, (Aurora-B) or 10 mM MgCl2 (Aurora-A) and 1 mM of DTT at 37° C.
# 80 μL of enzyme/substrate incubation buffer is distributed in each well, followed by 10 μL of solution of compound to be measured with various concentrations. The reaction is started by adding 1 μM of ATP (final concentration) containing 0.2 μCi of [^33P] ATP (10 μL). After 30 minutes of incubation the reaction is stopped by removal of the reaction mixture and each well is washed twice with 300 μl of buffer Tris/HCl. The radioactivity is measured in each well using a Packard Top count scintillation counter instrument.
# The enzymatic activity is expressed as counts per minute obtained in 30 minutes after subtraction of the background noise (reaction medium without enzyme). The measurement is expressed as percentage of inhibition of Aurora activity versus the control. To generate IC50 values, compounds of the invention are tested at different concentration and the percentage of inhibition are plotted as function of compound concentration, IC50s are calculated using the Xlfit 4 curve fitting software.
row,Compound,IC50
1,"O=C1CCCC2=C1C(c1cccc(Oc3ccc(Cl)cc3)c1)c1c[nH]nc1N2 (centres unmarked) [Example 22, 4-[3-(4-Chloro-phenoxy)-phenyl]-2,4,6,7,8,9-hexahydro-pyrazolo[3,4-b]quinolin-5-one; compound with trifluoro-acetic acid]",2.32 µM
2,"Cc1cc(C2C3=C(CNCC3=O)Nc3n[nH]cc32)ccc1O (centres unmarked) [Example 1, 4-(4-Hydroxy-3-methyl-phenyl)-2,4,6,7,8,9-hexahydro-pyrazolo[3,4-b]-1,7-naphthyridin-5-one; compound with trifluoro-acetic acid]",7.45 µM
3,"Cc1noc(C)c1C(=O)N1CC(=O)C2=C(C1)Nc1n[nH]cc1C2c1cccc(Oc2ccc(Cl)cc2)c1 (centres unmarked) [Example 53, 4-[3-(4-Chloro-phenoxy)-phenyl]-7-(3,5-dimethyl-isoxazole-4-carbonyl)-2,4,6,7,8,9-hexahydro-pyrazolo[3,4-b]-1,7-naphthyridin-5-one; compound with trifluoro-acetic acid]",7.37 µM
4,"Cc1nnsc1C(=O)N1CC(=O)C2=C(C1)Nc1n[nH]cc1C2c1cccc(Oc2ccc(Cl)cc2)c1 (centres unmarked) [Example 55, 4-[3-(4-Chloro-phenoxy)-phenyl]-7-(4-methyl-[1,2,3]thiadiazole-5-carbonyl)-2,4,6,7,8,9-hexahydro-pyrazolo[3,4-b]-1,7-naphthyridin-5-one; compound with trifluoro-acetic acid]",7.2 µM
5,O=C1CCCC2=C1C(c1ccc(-c3cccc(Cl)c3)o1)c1c[nH]nc1N2 (centres unmarked) [Example 23],2.41 µM
6,"Cn1c2c(c(=O)n(C)c1=O)C(c1cccc(Oc3ccc(Cl)cc3)c1)c1c[nH]nc1N2 (centres unmarked) [Example 43, 4-[3-(4-Chloro-phenoxy)-phenyl]-6,8-dimethyl-2,4,8,9-tetrahydro-1,2,6,8,9-pentaaza-cyclopenta[b]naphthalene-5,7-dione; compound with trifluoro-acetic acid]",9.7 µM
7,"O=C1CNCC2=C1C(c1cccc(C(=O)Nc3cccc(OC(F)(F)F)c3)c1)c1c[nH]nc1N2 (centres unmarked) [Example 64, 3-(5-Oxo-2,4,6,7,8,9-hexahydro-pyrazolo[3,4b]-1,7-naphthyridin-4-yl)-N-(3-trifluoromethoxy-phenyl)-benzamide; compound with trifluoro-acetic acid]",4.1 µM
8,"O=C1CN(C(=O)c2ccno2)CC2=C1C(c1cccc(Oc3ccc(Cl)cc3)c1)c1c[nH]nc1N2 (centres unmarked) [Example 54, 4-[3-(4-Chloro-phenoxy)-phenyl]-7-(isoxazole-5-carbonyl)-2,4,6,7,8,9-hexahydro-pyrazolo[3,4-b]-1,7-naphthyridin-5-one; compound with trifluoro-acetic acid]",6.1 µM
9,"O=C1CNCC2=C1C(c1ccc(COc3ccc(Cl)c(Cl)c3)o1)c1c[nH]nc1N2 (centres unmarked) [Example 19, 4-[5-(3,4-Dichloro-phenoxymethyl)-furan-2-yl]-2,4,6,7,8,9-hexahydro-pyrazolo[3,4-b]-1,7-naphthyridin-5-one; compound with trifluoro-acetic acid]",8.39 µM
10,"O=C1CCCC2=C1C(c1ccc(-c3ccc(Cl)cc3)o1)c1c[nH]nc1N2 (centres unmarked) [Example 27, 4-[5-(4-Chloro-phenyl)-furan-2-yl]-2,4,6,7,8,9-hexahydro-pyrazolo[3,4-b]quinolin-5-one; compound with trifluoro-acetic acid]",4.92 µM
11,"O=C1CNCC2=C1C(c1cccc(C(=O)NCc3ccc(OC(F)(F)F)cc3)c1)c1c[nH]nc1N2 (centres unmarked) [Example 60, 3-(5-Oxo-2,4,6,7,8,9-hexahydro-pyrazolo[3,4b]-1,7-naphthyridin-4-yl)-N-(4-trifluoromethoxy-benzyl)-benzamide; compound with trifluoro-acetic acid]",6.5 µM
12,"O=C1CNCC2=C1C(c1cccc(C(=O)Nc3ccc(OC(F)(F)F)cc3)c1)c1c[nH]nc1N2 (centres unmarked) [Example 63, 3-(5-Oxo-2,4,6,7,8,9-hexahydro-pyrazolo[3,4b]-1,7-naphthyridin-4-yl)-N-(4-trifluoromethoxy-phenyl)-benzamide; compound with trifluoro-acetic acid]",3.3 µM
13,"O=C1CCCC2=C1C(c1ccc(-c3cccc(C(F)(F)F)c3)o1)c1c[nH]nc1N2 (centres unmarked) [Example 25, 4-[5-(3-Trifluoromethyl-phenyl)-furan-2-yl]-2,4,6,7,8,9-hexahydro-pyrazolo[3,4-b]quinolin-5-one; compound with trifluoro-acetic acid]",3.07 µM

# Molecules with a lower IC50, results first:
row,IC50,Compound
1,2.15 µM,"O=C1CNCC2=C1C(c1ccc(-c3cccc(C(F)(F)F)c3)o1)c1c[nH]nc1N2 (centres unmarked) [Example 18, 4-[5-(3-trifluoromethyl-phenyl)-furan-2-yl]-2,4,6,7,8,9-hexahydro-pyrazolo[3,4-b]-1,7-naphthyridin-5-one; compound with trifluoro-acetic acid]"
2,2 µM,"O=C(Nc1ccc(Cl)cc1)Nc1cccc(C2C3=C(CNCC3=O)Nc3n[nH]cc32)c1 (centres unmarked) [Example 67, 1-(4-Chloro-phenyl)-3-[3-(5-Oxo-2,4,6,7,8,9-hexahydro-pyrazolo[3,4b]-1,7-naphthyridin-4-yl)-phenyl]-urea; compound with trifluoro-acetic acid]"
3,1.13 µM,"Cc1ccc(Oc2cccc(C3C4=C(CNCC4=O)Nc4n[nH]cc43)c2)cc1 (centres unmarked) [Example 11, 4-(3-p-Tolyloxy-phenyl)-2,4,6,7,8,9-hexahydro-pyrazolo[3,4-b]-1,7-naphthyridin-5-one; compound with trifluoro-acetic acid]"
4,1.08 µM,"O=C1CNCC2=C1C(c1ccc(-c3ccc(Cl)cc3)o1)c1c[nH]nc1N2 (centres unmarked) [Example 16, 4-[5-(4-Chloro-phenyl)-furan-2-yl]-2,4,6,7,8,9-hexahydro-pyrazolo[3,4-b]-1,7-naphthyridin-5-one; compound with trifluoro-acetic acid]"
5,1.03 µM,"O=C1CCCC2=C1C(c1ccc(-c3ccccc3C(F)(F)F)o1)c1c[nH]nc1N2 (centres unmarked) [Example 26, 4-[5-(2-Trifluoromethyl-phenyl)-furan-2-yl]-2,4,6,7,8,9-hexahydro-pyrazolo[3,4-b]quinolin-5-one; compound with trifluoro-acetic acid]"
6,0.888 µM,"O=C1CNCC2=C1C(c1ccc(-c3ccccc3C(F)(F)F)o1)c1c[nH]nc1N2 (centres unmarked) [Example 17, 4-[5-(2-trifluoromethyl-phenyl)-furan-2-yl]-2,4,6,7,8,9-hexahydro-pyrazolo[3,4-b]-1,7-naphthyridin-5-one; compound with trifluoro-acetic acid]"
7,0.696 µM,"CC(C)(C)c1ccc(Oc2cccc(C3C4=C(CNCC4=O)Nc4n[nH]cc43)c2)cc1 (centres unmarked) [Example 8, 4-[3-(4-tert-Butyl-phenoxy)-phenyl]-2,4,6,7,8,9-hexahydro-pyrazolo[3,4-b]-1,7-naphthyridin-5-one; compound with trifluoro-acetic acid]"
8,0.63 µM,"O=C1CNCC2=C1C(c1cccc(NC(=O)c3ccc(Cl)cc3)c1)c1c[nH]nc1N2 (centres unmarked) [Example 65, 4-Chloro-N-[3-(5-Oxo-2,4,6,7,8,9-hexahydro-pyrazolo[3,4b]-1,7-naphthyridin-4-yl)-phenyl]-benzamide; compound with trifluoro-acetic acid]"
9,0.291 µM,"O=C1CCCC2=C1C(c1ccc(COc3ccc(Cl)c(Cl)c3)o1)c1c[nH]nc1N2 (centres unmarked) [Example 24, 4-[5-(3,4-Dichloro-phenoxymethyl)-furan-2-yl]-2,4,6,7,8,9-hexahydro-pyrazolo[3,4-b]quinolin-5-one; compound with trifluoro-acetic acid]"
10,0.227 µM,"O=C1CN(CC(O)CN2CCOCC2)CC2=C1C(c1cccc(Oc3ccc(Cl)cc3)c1)c1c[nH]nc1N2 (centres unmarked) [Example 50, 4-[3-(4-Chloro-phenoxy)-phenyl]-7-(2-hydroxy-3-morpholin-4-yl-propyl)-2,4,6,7,8,9-hexahydro-pyrazolo[3,4-b]-1,7-naphthyridin-5-one; compound with trifluoro-acetic acid]"
